For one experiment, the system named is A549 cells. Put plainly: Pulse exposure to probes, time-lapse, reimaged after 72 h. The format is cell-based, human. The following applies: 20 uM for 15 mins, washout, T=72 h. Here is the method: In this regard, A549 cells were seeded in a 24 well coverslip bottomed-plate, cultured overnight in McCoys media for 24 or 48 hours. The plates were placed onto an inverted automated microscope, with the capacity for acquiring an image sequence of different wells (therefore exposure to different agent labelling). An Axiovert 100 microscope (Carl Zeiss, Welwyn Garden City, UK) was fitted with an incubator for 37° C./5% CO2 maintenance (Solent Scientific, Portsmouth, UK), and an ORCA-ER CCD camera (Hamamatsu, Reading, UK). Illumination was controlled by a shutter in front of the transmission lamp, and an x, y positioning stage with separate z-focus (Prior Scientific, Cambridge, UK) controlled multi-field acquisition. Image capture was controlled using Metamorph software.
Cells were exposed to a constant dose (0-5 μM) or a pulsed dose of 0 or 20 μM agent for 15 minutes followed by washout with warmed full media.
All images were collected with a ×10 (PH1) apochromat objective lens providing a field size of 500 times 500 microns. In this case a phase contrast image was collected every 30 minutes for 72 hours. Single cell growth and expansion can be tracked over time. The cells were harvested and run through a flow cytometry (typically a FACS Calibur 635 nm excitation/661/16 emission).
A549 cells were loaded with 20 uM BST-101, BST-109 or BST-110 for 15 mins followed by washout. Cells were then time-lapsed and reimaged after T=72 h, as before, […]

In another experiment the test system is MCF7. Briefly: MTT cellular viability (growth inhibition) assay, MCF7. The format is cell-based. Conditions: Homo sapiens, 0.25-100 μM, 72 h, Table 3. A digest of the protocol: (§1)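 Cells seeded at 1×10^4 cells/mL in R10, allowed to adhere overnight at 37 °C, 5% CO2. Compounds tested at 0.25–100 μM for 72 h; MTT read-out gave growth-inhibition IC50.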
A further experiment deals with A549. Put plainly: MTT cellular viability (growth inhibition) assay, A549. Type of experiment: cell-based. The following applies: Homo sapiens, 0.25-100 μM, 72 h, Table 3. A digest of the protocol:
as §1

For a further experiment, the system named is U-2 OS cells. Put plainly: Confocal laser scanning microscopy (CLSM) localisation analysis. The format is cell-based, human. Conditions: 30 min incubation, Ex 637 nm, Em >665 nm; for subcellular localisation by CLSM: FIG. 4 and 5. A digest of the protocol: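 Live U-2 OS cells imaged by confocal microscopy after 30 min incubation with probe compound, excitation 637 nm, emission >665 nm, at several z depths with solution background removed. Sections merged into maximum projections; per-cell nucleus/cytoplasm fluorescence ratio used as index of DNA binding.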

Experiment [1] relates to fixed human osteosarcoma U-2 OS cells. Put plainly: Labelling of fixed cells, wide-field fluorescence microscopy. Type of experiment: cell-based. Conditions: 20 μM, 1 h exposure in PBS, FIG. 2. Here is the method:
Cells were seeded in a 24 well coverslip bottomed-plate, cultured overnight in McCoys media. 24 or 48 hours later the cells were washed gently with 3×2 mL PBS per well. The PBS was removed and 0.5 mL of 4% paraformaldehyde solution [a 4% paraformaldehyde solution in PBS was made fresh each time from a 16% stock solution (Thermo Fisher Scientific)] was added in each well and cells were incubated for 30 min. The paraformaldehyde was removed and cells were washed 3×2 mL PBS per well. 1 mL of PBS or HEPES was added to each well.
Before analysis, cells were incubated at 37° C. in the dark for the period designated. Samples were analysed directly without any further washing step. For live cell labelling cells were seeded, plated in a similar way, into a similar multi-well dish for optimal optical performance and could be used across all microscope platforms.
This basic protocol was the standard for testing the patterns of AAQ agents at 20 μM, compared to 20 μM of DRAQ5 as the benchmark reference (both in terms of cellular location and ability to detect the red fluorescence).
Low resolution wide-field fluorescence microscopy was used to evaluate cell labelling in fixed human osteosarcoma U-2 OS cells. The system was an Axiovert 100 microscope (Carl Zeiss, Welwyn Garden City, UK) ×10 0.3 NA air objective lens and an ORCA-ER CCD camera (Hamamatsu, Reading, UK). Illumination was controlled by a shutter in front of the transmission lamp. Image capture was controlled using Metamorph software. This evaluates the ability of the compounds to label cellular compartments without active uptake or efflux prohibiting delivery into the given cell. Image collection was performed after 1 h of exposure to probes in PBS. The calibration bar represents 50 μm.

Take `COC(CC(=O)NCCNc1ccc(NCCN(C)C)c2c1C(=O)c1ccccc1C2=O)OC` [BST-110, N-(2-(4-(2-(dimethylamino)ethylamino)-9,10-dioxo-9,10-dihydroanthracen-1-ylamino)ethyl)-3,3-dimethoxypropanamide]: in the experiment with A549 cells, the “cell division and signal retention / location after pulse exposure” value is “dividing, and signal now relocated in a non-nuclear compartment perinuclear”. Besides, the IC50 in the experiment with MCF7 stood at 19.5 µM. This compound registered an IC50 in the experiment with A549 of 22.3 µM. For the same compound, in the experiment on U-2 OS cells, the “specific feature of localisation by CLSM” value is recorded as “whole cell staining”; the “subcellular localisation by CLSM” value was “strong nuclear uptake and perinuclear staining, with possible ER accumulation”. Further, in experiment [1], the “fluorescence brightness / background in fixed cells” value is listed as “very high background fluorescence”; the “staining pattern in fixed cells” value is “cytoplasmic staining and heterogeneity on labelling of mitotic figures”.
`COC(CNC(=O)CCNc1ccc(NCCN(C)C)c2c1C(=O)c1ccccc1C2=O)OC` [BST-109, N-(2,2-Dimethoxyethyl)-3-(4-(2-(dimethylamino)ethylamino)-9,10-dioxo-9,10-dihydroanthracen-1-ylamino)propanamide]: the “cell division and signal retention / location after pulse exposure” value with A549 cells was “dividing, and signal retained but now relocated in a non-nuclear compartment perinuclear”. Also, the IC50 turned out to be 15.7 µM in the experiment on MCF7 and 22.5 µM in the experiment on A549. In the experiment with U-2 OS cells, the “specific feature of localisation by CLSM” value is “whole cell staining”. Also, the “subcellular localisation by CLSM” value in the experiment with U-2 OS cells is “strong nuclear uptake and perinuclear staining, with possible ER accumulation”. In addition, in experiment [1], the “staining pattern in fixed cells” value was “heterogeneity in cytoplasmic staining and positive spots in the nuclei”.

Broadly, the IC50 is the concentration that inhibits the measured activity by half. Lower therefore signals higher potency.

For the origin of these results see US11447638B2, “Acetalanthraquinone derivatives useful for cellular staining” (BIOSTATUS LIMITED, priority 2016, dated 2022).
